Measurements taken from patent publication US11447489B2, “Dihydropyrimidinylthiazole for the treatment and prophylaxis of hepatitis B virus infection” (priority 2017, dated 2022).

tested on: HBsAg; assay: HepG2.2.15 cells primary screen assay: HBsAg assay (CLIA of secreted HBsAg); format: cell-based, HBV; details: Hepatitis B virus
Procedure: Example 23: HepG2.2.15 Cells Primary Screen Assay
HepG2.2.15 cells (Acs et al. Proc Natl Acad Sci USA, 84, (1987), 4641-4), a constitutively HBV-expressing cell line were cultured in DMEM+Glutamax-I medium (Invitrogen, Carlsbad, Calif., USA), supplemented with 10% fetal bovine serum (Invitrogen) and G418 (Invitrogen) at a final concentration of 200 mg/L and maintained in 5% CO2 at 37° C.
HepG2.2.15 cells were seeded in duplicate into white, 96-well plates at 1.5×10^4 cells/well. The cells were treated with a three-fold serial dilution series of the compounds in DMSO. The final DMSO concentration in all wells was 1% and DMSO was used as no drug control.
The HBsAg chemiluminescence immunoassay (CLIA) kit (Autobio Diagnostics Co., Zhengzhou, China, Catalog number: CL0310-2) was used to measure the levels of secreted HBV antigens semi-quantitatively. For the detection 50 μL/well culture supernatant was used and HBsAg was quantified using HBsAg chemiluminescence immunoassay (CLIA) kit (Autobio Diagnostics Co., Zhengzhou, China, Catalog number: CL0310-2), 50 μL of the supernatant was transferred to the CLIA assay plate and 50 μL of enzyme conjugate reagent was added into each well. The plates were sealed and gently agitated for 1 hour at room temperature. The supernatant-enzyme-mixture was discarded and wells were washed 6 times with 300 μL of PBS. The residual liquid was removed by plating the CLIA plate […] on absorbent tissue paper. 25 μL of substrates A and B were added to each well. Luminance was measured using a luminometer (Mithras LB 940 Multimode Microplate Reader) after 10 minutes incubation. Dose-response curves were generated and the IC50 value was extrapolated by using the E-WorkBook Suite (ID Business Solutions Ltd., Guildford, UK). The IC50 was defined as the compound concentration (or conditioned media log dilution) at which HBsAg secretion was reduced by 50% compared to the no drug control.
The compounds of the present invention were tested for their capacity to inhibit HBsAg as described herein.

Going from `COC(=O)C1=C(CN2CCN3C(=O)N(CC(C)(C)CC(=O)NCCCCCCOc4cc(N5CCc6nc(-c7ncccn7)ncc6C5C)cc(F)c4F)C[C@@H]3C2)NC(c2nccs2)=N[C@H]1c1ccc(F)cc1Cl` (stereo partly drawn) [Example 17, methyl (4R)-6-[[(8aS)-2-[4-[6-[2,3-difluoro-5-[5-methyl-2-pyrimidin-2-yl-7,8-dihydro-5H-pyrido[4,3-d]pyrimidin-6-yl]phenoxy]hexylamino]-2,2-dimethyl-4-oxo-butyl]-3-oxo-5,6,8,8a-tetrahydro-1H-imidazo[1,5-a]pyrazin-7-yl]methyl]-4-(2-chloro-4-fluoro-phenyl)-2-thiazol-2-yl-1,4-dihydropyrimidine-5-carboxylate] to `COC(=O)C1=C(CN2CCOC[C@H]2CN(C)CCCCCCOc2cc(N3CCc4nc(-c5ncccn5)ncc4C3C)cc(F)c2F)NC(c2nccs2)=N[C@H]1c1ccc(F)cc1Cl` (stereo partly drawn) [Example 19, methyl (4R)-4-(2-chloro-4-fluoro-phenyl)-6-[[(3R)-3-[[6-[2,3-difluoro-5-(5-methyl-2-pyrimidin-2-yl-7,8-dihydro-5H-pyrido[4,3-d]pyrimidin-6-yl)phenoxy]hexyl-methyl-amino]methyl]morpholin-4-yl]methyl]-2-thiazol-2-yl-1,4-dihydropyrimidine-5-carboxylate], the IC50 falls from 1190 nM to 724 nM (1.6-fold).

Going from `COC(=O)C1=C(CN2CCN(CCC(CCCOc3cc4c(cc3OC)-c3cc(=O)c(C(=O)O)cn3C(C(C)(C)C)C4)C(=O)O)CC2)NC(c2nccs2)=N[C@H]1c1ccc(F)cc1Cl` (stereo partly drawn) [Example 12, 6-tert-butyl-9-[4-carboxy-6-[4-[[(4R)-4-(2-chloro-4-fluoro-phenyl)-5-methoxycarbonyl-2-thiazol-2-yl-1,4-dihydropyrimidin-6-yl]methyl]piperazin-1-yl]hexoxy]-10-methoxy-2-oxo-6,7-dihydrobenzo[a]quinolizine-3-carboxylic Acid] to `COC(=O)C1=C(CN2CCN(CCCCCOc3cc4c(cc3OC)-c3cc(=O)c(C(=O)O)cn3C(C(C)(C)C)C4)CC2)NC(c2nccs2)=N[C@H]1c1ccc(F)cc1Cl` (stereo partly drawn) [Example 2, 6-tert-butyl-9-[5-[4-[[(4R)-4-(2-chloro-4-fluoro-phenyl)-5-methoxycarbonyl-2-thiazol-2-yl-1,4-dihydropyrimidin-6-yl]methyl]piperazin-1-yl]pentoxy]-10-methoxy-2-oxo-6,7-dihydrobenzo[a]quinolizine-3-carboxylic Acid], the IC50 falls from 740 nM to 88 nM (8.4-fold).

Going from `COC(=O)C1=C(CN2CCN(CCOCCOCCOc3cc4c(cc3OC)-c3cc(=O)c(C(=O)O)cn3C(C(C)(C)C)C4)C(C(=O)O)C2)NC(c2nccs2)=N[C@H]1c1ccc(F)cc1Cl` (stereo partly drawn) [Example 11, 6-tert-butyl-9-[2-[2-[2-[2-carboxy-4-[[(4R)-4-(2-chloro-4-fluoro-phenyl)-5-methoxycarbonyl-2-thiazol-2-yl-1,4-dihydropyrimidin-6-yl]methyl]piperazin-1-yl]ethoxy]ethoxy]ethoxy]-10-methoxy-2-oxo-6,7-dihydrobenzo[a]quinolizine-3-carboxylic Acid] to `COC(=O)C1=C(CN2CCN(CCCCCCOc3cc4c(cc3OC)-c3cc(=O)c(C(=O)O)cn3C(C(C)(C)C)C4)CC2)NC(c2nccs2)=N[C@H]1c1ccc(F)cc1Cl` (stereo partly drawn) [Example 1, 6-tert-butyl-9-[6-[4-[[(4R)-4-(2-chloro-4-fluoro-phenyl)-5-methoxycarbonyl-2-thiazol-2-yl-1,4-dihydropyrimidin-6-yl]methyl]piperazin-1-yl]hexoxy]-10-methoxy-2-oxo-6,7-dihydrobenzo[a]quinolizine-3-carboxylic Acid], the IC50 falls from 6340 nM to 41 nM (150-fold).

`COC(=O)C1=C(CN2CCN(CCCOc3cc4c(cc3OC)-c3cc(=O)c(C(=O)O)cn3C(C(C)(C)C)C4)CC2)NC(c2nccs2)=N[C@H]1c1ccc(F)cc1Cl` (stereo partly drawn) [Example 4, 6-tert-butyl-9-[3-[4-[[(4R)-4-(2-chloro-4-fluoro-phenyl)-5-methoxycarbonyl-2-thiazol-2-yl-1,4-dihydropyrimidin-6-yl]methyl]piperazin-1-yl]propoxy]-10-methoxy-2-oxo-6,7-dihydrobenzo[a]quinolizine-3-carboxylic Acid] was tested, and the IC50 was 182 nM.
